From EPA's ToxRefDB 2

Key:
dog [1] = settings: Subchronic oral toxicity in nonrodent, beagle, Feed, dose end: 90 day, group: systemic, systemic / hematology / erythrocyte (rbc) count differential / erythrocyte (rbc) + systemic / hematology / mean corpuscular (cell) volume (…
mouse [2] = settings: Carcinogenicity, b6c3f1, Oral, Feed, dose end: 101 week, group: systemic
rat [3] = settings: Carcinogenicity, fischer, Oral, Feed, dose end: 101 week, group: systemic
rat [4] = settings: Subchronic oral toxicity in rodents, other, Feed, dose end: 90 day, group: systemic
rat [5] = settings: Subchronic oral toxicity in rodents, sprague dawley, Feed, dose end: 13 week, group: systemic, systemic / clinical chemistry / thyroxine (t4) / thyroxine (t4)
dog [6] = settings: Subchronic oral toxicity in nonrodent, beagle, Feed, dose end: 13 week, group: systemic, systemic / hematology / erythrocyte (rbc) count differential / erythrocyte (rbc) + systemic / in life observation / body weight / body …
mouse [7] = settings: Subchronic oral toxicity in rodents, cd1, Feed, dose end: 90 day, group: systemic, systemic / clinical chemistry / aminopyrine-n-demethylase / aminopyrine-n-demethylase + systemic / clinical chemistry / p-nitroanisole …
rat [8] = settings: Developmental neurotoxicity range-finding study; sprague dawley; Oral; Feed; dose end: 21 PND; group: cannot be grouped; systemic / in life observation / body weight / offspring (pup) weight
rat [9] = settings: Combined chronic toxicity/carcinogenicity, sprague dawley, Oral, Feed, dose end: 2 year, group: systemic
rat [10] = settings: Prenatal developmental toxicity study, sprague dawley, Oral, Gavage/Intubation, dose end: 15 GD
rat [11] = settings: Prenatal developmental toxicity study, sprague dawley, Oral, Gavage/Intubation, dose end: 15 GD; remark: listed apart in the source
dog [12] = settings: Chronic toxicity, beagle, Oral, Feed, dose end: 52 week, group: systemic
[13] = systemic / in life observation / body weight / body weight
[14] = systemic / in life observation / body weight / body weight + systemic / pathology microscopic / blood vessel / hemangiosarcoma + systemic / …
[15] = systemic / in life observation / body weight / body weight + systemic / pathology microscopic / liver / neoplastic nodule + systemic / …
[16] = systemic / pathology microscopic / kidney / pigmentation
[17] = systemic / pathology microscopic / kidney / pigmentation + systemic / clinical chemistry / cholesterol / cholesterol + systemic / clinical …
[18] = total + systemic / clinical chemistry / thyroid stimulating hormone (…
[19] = systemic / clinical chemistry / thyroid stimulating hormone (thyrotropin) (tsh) / thyroid stimulating hormone (=thyrotropin) (tsh) + …
[20] = group: developmental, developmental / developmental malformation / bone / incomplete ossification
[21] = group: maternal, systemic / in life observation / body weight / body weight gain + systemic / in life observation / food consumption / food consumption
[22] = group: maternal, systemic / in life observation / body weight / body weight gain + systemic / in life observation / food consumption / food consumption + …
[23] = group: developmental, developmental / developmental malformation / bone / absent + developmental / developmental malformation / bone / bent + developmental / …
[24] = group: maternal, systemic / in life observation / body weight / body weight + systemic / in life observation / body weight / body weight gain + systemic / in…
[25] = systemic / in life observation / body weight / body weight gain
[26] = systemic / in life observation / body weight / body weight gain + systemic / clinical chemistry / cholesterol / cholesterol + systemic / …

Compound: O=C(NC(=O)c1c(F)cccc1F)Nc1cc(Cl)c(OC(F)(F)C(F)C(F)(F)F)c(Cl)c1F (stereo unspecified) [Noviflumuron]
- LEL (dog [1]): 113 mg/kg/day
- LOAEL (dog [1]): 113 mg/kg/day
- NEL (dog [1]): 1.06 mg/kg/day
- NOAEL (dog [1]): 1.06 mg/kg/day

Compound: Cc1cc(C)c(N)cc1C [2,4,5-Trimethylaniline]
- LOAEL (mouse [2]; [13]): 7.5 mg/kg/day
- NOAEL (mouse [2]; [13]): < 7.5 mg/kg/day
- LEL (mouse [2]; [14]): 7.5 mg/kg/day
- NEL (mouse [2]; [14]): < 7.5 mg/kg/day
- LOAEL (rat [3]; [13]): 10 mg/kg/day
- NOAEL (rat [3]; [13]): < 10 mg/kg/day
- LEL (rat [3]; [15]): 10 mg/kg/day
- NEL (rat [3]; [15]): < 10 mg/kg/day

Compound: S=C([S-])NCCNC(=S)[S-].S=C([S-])NCCNC(=S)[S-].[Mn+2].[Zn+2] [Mancozeb]
- LEL (rat [4]; [16]): 7.42 mg/kg/day
- LOAEL (rat [4]; [16]): 7.42 mg/kg/day
- NEL (rat [4]; [17]): 3.49 mg/kg/day
- NOAEL (rat [4]; [17]): 3.49 mg/kg/day
- LEL (rat [5]; total): 17.8 mg/kg/day
- LOAEL (rat [5]; total): 17.8 mg/kg/day
- NEL (rat [5]; [18]): 9.24 mg/kg/day
- NOAEL (rat [5]; [18]): 9.24 mg/kg/day
- LEL (dog [6]): 28.6 mg/kg/day
- LOAEL (dog [6]): 28.6 mg/kg/day
- NEL (dog [6]): 2.98 mg/kg/day
- NOAEL (dog [6]): 2.98 mg/kg/day
- LEL (mouse [7]): 167 mg/kg/day
- LOAEL (mouse [7]): 167 mg/kg/day
- NEL (mouse [7]): 18.1 mg/kg/day
- NOAEL (mouse [7]): 18.1 mg/kg/day
- LEL (rat [8]): 30 mg/kg/day
- LOAEL (rat [8]): 30 mg/kg/day
- NEL (rat [8]): 5 mg/kg/day
- NOAEL (rat [8]): 5 mg/kg/day
- LEL (rat [9]; systemic / clinical chemistry / thyroid stimulating hormone (thyrotropin) (tsh) / thyroid stimulating hormone (=thyrotropin) (tsh)): 2.33 mg/kg/day
- LOAEL (rat [9]; [19]): 30.9 mg/kg/day
- NEL (rat [9]; [19]): 0.77 mg/kg/day
- NOAEL (rat [9]; [19]): 4.38 mg/kg/day
- LEL (rat [10]; [20]): 2 mg/kg/day
- NEL (rat [10]; [20]): < 2 mg/kg/day
- LOAEL (rat [10]; group: developmental, developmental / developmental malformation / bone / incomplete ossification + developmental / developmental malformation / brain / [other]): 8 mg/kg/day
- NOAEL (rat [10]; group: developmental, developmental / developmental malformation / bone / incomplete ossification + developmental / developmental malformation / brain / [other…): 2 mg/kg/day
- LEL (rat [10]; [21]): 128 mg/kg/day
- LOAEL (rat [10]; [21]): 128 mg/kg/day
- NEL (rat [10]; [22]): 32 mg/kg/day
- NOAEL (rat [10]; [22]): 32 mg/kg/day
- LEL (rat [11]; [23]): 512 mg/kg/day
- LOAEL (rat [11]; [23]): 512 mg/kg/day
- NEL (rat [11]; [23]): 128 mg/kg/day
- NOAEL (rat [11]; [23]): 128 mg/kg/day
- LEL (rat [11]; [24]): 128 mg/kg/day
- LOAEL (rat [11]; [24]): 128 mg/kg/day
- NEL (rat [11]; [24]): 32 mg/kg/day
- NOAEL (rat [11]; [24]): 32 mg/kg/day
- LEL (dog [12]; [25]): 7.26 mg/kg/day
- LOAEL (dog [12]; [25]): 7.26 mg/kg/day
- NEL (dog [12]; [26]): 1.75 mg/kg/day
- NOAEL (dog [12]; [26]): 1.75 mg/kg/day
